{"source": "patent US8592415B2", "about": "“Selective kinase inhibitors” (Reaction Biology Corp., priority 2009, dated 2013)"}
{"target": "JAK1 (Homo sapiens, UniProt P23458)", "assay": "In vitro JAK kinase enzymatic assay (JAK1)", "assay_type": "biochemical", "conditions": "not given", "method": "(§1) The JAK3 kinase is recombinant human protein (catalytic domain, amino acids 781-1124 with GST-tag), expressed in insect cells (Invitrogen Catalog PV3855). The substrate is poly-glutamic acid-tyrosin peptide, Poly-(GT) (4:1) (Sigma-Aldrich, catalog P7244). [γ-^33P]-ATP is purchased from Perkin Elmer (catalog NEG602H001MC) (EasyTides). Kinase reaction buffer is 100 mM HEPES (pH 7.5), 20 mM MgCl2, 2 mM EGTA, 0.02% Brij 35. The JAK1 (Invitrogen Catalog PV4774), JAK2 (Invitrogen Catalog PV4210) and TYK2 Invitrogen Catalog PV4790) enzymatic assays are performed in the similar way. JAK1 and JAK2 substrate is Poly-(GT) (4:1), but TYK2 substrate is peptide with sequences of […]. The reaction is carried for 2 hours at room temperature. After the reactions are finished or stopped, portion or all the reaction mixtures are transferred onto filter paper P81 Phosphocellulose paper (Whatman catalog 3698-915) for binding the final radioisotope labeled products. The unreacted phosphate are washed away without interfering with the detection of real phosphorylated products. The final product can be detected by instruments such as scintillation counter, top counter or phosphoimager. The enzymatic assays can also performed in assays described those described in the art [e.g., Ma H et al, Expert Opin. Drug Discov. 3, 607-621 (2008); Olive D M, Expert Rev Proteomics, 1, 327-341 (2004)].\n(§2) Signal=Bottom+(Top−Bottom)/(1+10^((Log(IC50)−Log [I])*Hill Slope) Bottom and Top refer to the post and pre-transition baselines, respectively.", "units": {"IC50": "µM"}}
{"molecule": "C=CC(=O)Nc1cccc(-c2cnc3ccccc3n2)c1", "note": "[Example 22, N-(3-(quinoxalin-2-yl)phenyl)acrylamide]", "IC50": "> 10"}
{"molecule": "O=C(CO)Nc1cccc(-c2cnc3ccccc3n2)c1", "note": "[Example 29, 2-hydroxy-N-(3-(quinoxalin-2-yl)phenyl)acetamide]", "IC50": "> 10"}
{"molecule": "CC(=O)SCC(=O)Nc1cccc(-c2cnc3ccccc3n2)c1", "note": "[Example 30, S-2-oxo-2-(3-(quinoxalin-2-yl)phenylamino)ethyl ethanethioate]", "IC50": "> 10"}
{"molecule": "CCOC(=O)CC(=O)Nc1cccc(-c2cnc3ccccc3n2)c1", "note": "[Example 32, ethyl 3-oxo-3-(3-(quinoxalin-2-yl)phenylamino)propanoate]", "IC50": "> 10"}
{"molecule": "O=C(CN1CCN(c2ccncc2)CC1)Nc1cccc(-c2cnc3ccccc3n2)c1", "note": "[Example 33, 2-(4-(pyridin-4-yl)piperazin-1-yl)-N-(3-(quinoxalin-2-yl)phenyl)acetamide]", "IC50": "> 10"}
{"molecule": "O=C(CN1CCC(O)CC1)Nc1cccc(-c2cnc3ccccc3n2)c1", "note": "[Example 34, 2-(4-hydroxypiperidin-1-yl)-N-(3-(quinoxalin-2-yl)phenyl)acetamide]", "IC50": "> 10"}
{"molecule": "O=C(CN1CCNCC1)Nc1cccc(-c2cnc3ccccc3n2)c1", "note": "[Example 35, 2-(piperazin-1-yl)-N-(3-(quinoxalin-2-yl)phenyl)acetamide]", "IC50": "> 20"}
{"molecule": "NS(=O)(=O)CCC(=O)Nc1cccc(-c2cnc3ccccc3n2)c1", "note": "[Example 36, 3-(aminosulfonyl)-N-[3-(2-quinoxalinyl)phenyl]propanamide]", "IC50": "> 10"}
{"test_system": "amyotrophic lateral sclerosis (ALS)", "assay": "not given", "conditions": "transgenic mouse model of ALS; cited from earlier work"}
{"molecule": "COc1cc2ncnc(Nc3ccc(O)cc3)c2cc1OC", "note": "[WHI-P131]", "survival": "increased survival"}
{"target": "TYK2 (Homo sapiens (Human), UniProt P29597)", "sequence (P29597 whole entry)": "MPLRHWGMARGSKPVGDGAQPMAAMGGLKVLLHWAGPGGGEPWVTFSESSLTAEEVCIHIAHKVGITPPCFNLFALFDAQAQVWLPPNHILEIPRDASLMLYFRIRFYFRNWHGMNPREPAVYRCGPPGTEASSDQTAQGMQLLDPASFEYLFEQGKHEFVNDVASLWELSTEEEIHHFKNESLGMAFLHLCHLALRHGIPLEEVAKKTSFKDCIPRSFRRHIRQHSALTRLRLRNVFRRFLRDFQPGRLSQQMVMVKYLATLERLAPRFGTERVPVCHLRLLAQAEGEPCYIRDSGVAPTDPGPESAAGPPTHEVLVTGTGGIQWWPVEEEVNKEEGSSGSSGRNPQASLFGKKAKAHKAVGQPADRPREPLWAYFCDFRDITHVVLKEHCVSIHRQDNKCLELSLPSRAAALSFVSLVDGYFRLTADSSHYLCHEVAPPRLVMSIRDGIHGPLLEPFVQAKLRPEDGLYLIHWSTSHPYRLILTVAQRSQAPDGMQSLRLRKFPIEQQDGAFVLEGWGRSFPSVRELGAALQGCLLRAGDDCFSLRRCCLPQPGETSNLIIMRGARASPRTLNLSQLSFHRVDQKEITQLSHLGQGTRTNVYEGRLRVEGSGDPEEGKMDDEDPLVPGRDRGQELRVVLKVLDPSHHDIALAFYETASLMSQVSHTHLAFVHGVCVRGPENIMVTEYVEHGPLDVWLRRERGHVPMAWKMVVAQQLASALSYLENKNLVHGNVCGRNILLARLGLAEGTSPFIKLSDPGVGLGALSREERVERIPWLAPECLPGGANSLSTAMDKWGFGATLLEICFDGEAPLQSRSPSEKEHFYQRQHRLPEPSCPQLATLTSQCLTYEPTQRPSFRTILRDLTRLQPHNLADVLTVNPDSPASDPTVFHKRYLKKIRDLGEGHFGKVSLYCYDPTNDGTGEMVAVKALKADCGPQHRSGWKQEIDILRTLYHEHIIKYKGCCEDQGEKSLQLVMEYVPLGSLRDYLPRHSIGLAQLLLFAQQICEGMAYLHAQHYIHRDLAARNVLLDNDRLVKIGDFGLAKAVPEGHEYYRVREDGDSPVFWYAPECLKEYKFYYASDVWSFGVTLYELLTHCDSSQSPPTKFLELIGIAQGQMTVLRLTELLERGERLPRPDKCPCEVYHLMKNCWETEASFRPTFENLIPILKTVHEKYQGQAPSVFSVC", "assay": "In vitro JAK kinase enzymatic assay (TYK2)", "assay_type": "biochemical", "conditions": "not given", "method": "as §1, §2", "units": {"IC50": "µM"}}
{"molecule": "C=CC(=O)Nc1cccc(-c2cnc3ccccc3n2)c1", "note": "[Example 22, N-(3-(quinoxalin-2-yl)phenyl)acrylamide]", "IC50": "> 10"}
{"molecule": "O=C(CO)Nc1cccc(-c2cnc3ccccc3n2)c1", "note": "[Example 29, 2-hydroxy-N-(3-(quinoxalin-2-yl)phenyl)acetamide]", "IC50": "> 10"}
{"molecule": "CC(=O)SCC(=O)Nc1cccc(-c2cnc3ccccc3n2)c1", "note": "[Example 30, S-2-oxo-2-(3-(quinoxalin-2-yl)phenylamino)ethyl ethanethioate]", "IC50": "> 10"}
{"molecule": "CCOC(=O)CC(=O)Nc1cccc(-c2cnc3ccccc3n2)c1", "note": "[Example 32, ethyl 3-oxo-3-(3-(quinoxalin-2-yl)phenylamino)propanoate]", "IC50": "> 10"}
{"molecule": "O=C(CN1CCN(c2ccncc2)CC1)Nc1cccc(-c2cnc3ccccc3n2)c1", "note": "[Example 33, 2-(4-(pyridin-4-yl)piperazin-1-yl)-N-(3-(quinoxalin-2-yl)phenyl)acetamide]", "IC50": "> 10"}
{"molecule": "O=C(CN1CCC(O)CC1)Nc1cccc(-c2cnc3ccccc3n2)c1", "note": "[Example 34, 2-(4-hydroxypiperidin-1-yl)-N-(3-(quinoxalin-2-yl)phenyl)acetamide]", "IC50": "> 10"}
{"molecule": "O=C(CN1CCNCC1)Nc1cccc(-c2cnc3ccccc3n2)c1", "note": "[Example 35, 2-(piperazin-1-yl)-N-(3-(quinoxalin-2-yl)phenyl)acetamide]", "IC50": "> 20"}
{"molecule": "NS(=O)(=O)CCC(=O)Nc1cccc(-c2cnc3ccccc3n2)c1", "note": "[Example 36, 3-(aminosulfonyl)-N-[3-(2-quinoxalinyl)phenyl]propanamide]", "IC50": "> 10"}
{"test_system": "collagen-induced arthritis", "assay": "not given", "conditions": "rat; cited from earlier work"}
{"molecule": "C[C@@H]1CCN(C(=O)CC#N)C[C@@H]1N(C)c1ncnc2[nH]ccc12", "note": "[CP-690550]", "effect in collagen-induced arthritis": "therapeutic effects"}
{"target": "T1, JAK3 (Homo sapiens (Human), UniProt P52333)", "assay": "not given", "conditions": "cited from earlier work"}
{"molecule": "COc1cc2ncnc(Nc3ccc(O)cc3)c2cc1OC", "note": "[WHI-P131]", "JAK3 IC50s": "low μM ranges"}
{"test_system": "autoimmune type I diabetes", "assay": "not given", "conditions": "NOD mouse; cited from earlier work"}
{"molecule": "COc1cc2ncnc(Nc3ccc(O)cc3)c2cc1OC", "note": "[JANEX-1]", "onset of diabetes": "delayed the onset of diabetes"}
{"test_system": "myeloid dendritic cells (DCs)", "assay": "not given", "conditions": "cited from earlier work"}
{"molecule": "COc1cc2ncnc(Nc3ccc(O)c(Br)c3)c2cc1OC", "note": "[WHI-P-154]", "effect on CD40-induced DC maturation": "prevented these effects"}
{"target": "T1, JAK3", "assay": "In vitro JAK kinase enzymatic assay (JAK3)", "assay_type": "biochemical", "conditions": "not given", "method": "as §1, §2", "units": {"IC50": "µM"}}
{"molecule": "C=CC(=O)Nc1cccc(-c2cnc3ccccc3n2)c1", "note": "[Example 22, N-(3-(quinoxalin-2-yl)phenyl)acrylamide]", "IC50": 0.045}
{"molecule": "O=C(CO)Nc1cccc(-c2cnc3ccccc3n2)c1", "note": "[Example 29, 2-hydroxy-N-(3-(quinoxalin-2-yl)phenyl)acetamide]", "IC50": "> 10"}
{"molecule": "CC(=O)SCC(=O)Nc1cccc(-c2cnc3ccccc3n2)c1", "note": "[Example 30, S-2-oxo-2-(3-(quinoxalin-2-yl)phenylamino)ethyl ethanethioate]", "IC50": "> 10"}
{"molecule": "CCOC(=O)CC(=O)Nc1cccc(-c2cnc3ccccc3n2)c1", "note": "[Example 32, ethyl 3-oxo-3-(3-(quinoxalin-2-yl)phenylamino)propanoate]", "IC50": "> 10"}
{"molecule": "O=C(CN1CCN(c2ccncc2)CC1)Nc1cccc(-c2cnc3ccccc3n2)c1", "note": "[Example 33, 2-(4-(pyridin-4-yl)piperazin-1-yl)-N-(3-(quinoxalin-2-yl)phenyl)acetamide]", "IC50": "> 10"}
{"molecule": "O=C(CN1CCC(O)CC1)Nc1cccc(-c2cnc3ccccc3n2)c1", "note": "[Example 34, 2-(4-hydroxypiperidin-1-yl)-N-(3-(quinoxalin-2-yl)phenyl)acetamide]", "IC50": "> 10"}
{"molecule": "O=C(CN1CCNCC1)Nc1cccc(-c2cnc3ccccc3n2)c1", "note": "[Example 35, 2-(piperazin-1-yl)-N-(3-(quinoxalin-2-yl)phenyl)acetamide]", "IC50": 13}
{"molecule": "NS(=O)(=O)CCC(=O)Nc1cccc(-c2cnc3ccccc3n2)c1", "note": "[Example 36, 3-(aminosulfonyl)-N-[3-(2-quinoxalinyl)phenyl]propanamide]", "IC50": "> 10"}
{"test_system": "adjuvant-induced arthritis", "assay": "not given", "conditions": "rat; cited from earlier work"}
{"molecule": "C[C@@H]1CCN(C(=O)CC#N)C[C@@H]1N(C)c1ncnc2[nH]ccc12", "note": "[CP-690550]", "effect in adjuvant-induced arthritis": "therapeutic effects"}
{"target": "JAK2 (Homo sapiens, UniProt O60674)", "sequence (O60674 whole entry, looked up, the tested form may be a part)": "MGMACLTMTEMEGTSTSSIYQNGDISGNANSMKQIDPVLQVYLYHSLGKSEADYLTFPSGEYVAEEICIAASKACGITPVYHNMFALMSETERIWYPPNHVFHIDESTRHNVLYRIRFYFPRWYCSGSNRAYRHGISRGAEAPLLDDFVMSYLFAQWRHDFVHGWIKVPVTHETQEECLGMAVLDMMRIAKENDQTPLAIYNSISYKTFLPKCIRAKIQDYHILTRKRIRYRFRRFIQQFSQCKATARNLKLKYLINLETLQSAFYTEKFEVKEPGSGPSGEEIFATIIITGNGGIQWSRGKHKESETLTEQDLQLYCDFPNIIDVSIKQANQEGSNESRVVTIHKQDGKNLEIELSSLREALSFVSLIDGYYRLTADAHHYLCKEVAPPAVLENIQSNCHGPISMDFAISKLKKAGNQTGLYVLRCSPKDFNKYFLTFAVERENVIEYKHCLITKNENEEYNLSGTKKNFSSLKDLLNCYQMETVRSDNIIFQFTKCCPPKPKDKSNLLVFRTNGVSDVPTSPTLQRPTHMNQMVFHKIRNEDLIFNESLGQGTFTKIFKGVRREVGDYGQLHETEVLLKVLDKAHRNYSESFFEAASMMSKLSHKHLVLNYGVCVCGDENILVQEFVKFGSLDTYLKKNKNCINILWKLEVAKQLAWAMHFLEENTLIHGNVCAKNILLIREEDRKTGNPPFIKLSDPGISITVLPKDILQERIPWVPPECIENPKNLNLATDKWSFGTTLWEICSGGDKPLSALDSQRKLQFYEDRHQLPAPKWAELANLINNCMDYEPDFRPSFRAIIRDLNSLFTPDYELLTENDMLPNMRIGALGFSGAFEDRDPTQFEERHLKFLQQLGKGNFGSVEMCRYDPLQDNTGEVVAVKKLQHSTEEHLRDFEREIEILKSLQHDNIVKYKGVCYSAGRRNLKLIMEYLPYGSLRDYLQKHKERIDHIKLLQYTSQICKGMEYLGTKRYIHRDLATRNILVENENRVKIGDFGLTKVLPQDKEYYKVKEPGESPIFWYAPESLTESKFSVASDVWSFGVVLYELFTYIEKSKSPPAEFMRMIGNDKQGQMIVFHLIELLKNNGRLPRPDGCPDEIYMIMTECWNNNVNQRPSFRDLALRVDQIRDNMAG", "assay": "In vitro JAK kinase enzymatic assay (JAK2)", "assay_type": "biochemical", "conditions": "not given", "method": "as §1, with “The” for “The JAK3 kinase is recombinant human protein (catalytic domain, amino acids 781-1124 with GST-tag), expressed in insect cells (Invitrogen Catalog PV3855). The”, “After the reactions are finished or stopped, portion or all the reaction mixtures are transferred onto filter paper P81 Phosphocellulose paper (Whatman catalog 3698-915) for binding the final radioisotope labeled products.” left out, “Discov.” for “Discov. 3, 607-621 (2008); Olive D M, Expert Rev Proteomics, 1, 327-341 (2004)].”\nas §2", "units": {"IC50": "µM"}}
{"molecule": "C=CC(=O)Nc1cccc(-c2cnc3ccccc3n2)c1", "note": "[Example 22, N-(3-(quinoxalin-2-yl)phenyl)acrylamide]", "IC50": "> 10"}
{"molecule": "O=C(CO)Nc1cccc(-c2cnc3ccccc3n2)c1", "note": "[Example 29, 2-hydroxy-N-(3-(quinoxalin-2-yl)phenyl)acetamide]", "IC50": "> 10"}
{"molecule": "O=C(CN1CCC(O)CC1)Nc1cccc(-c2cnc3ccccc3n2)c1", "note": "[Example 34, 2-(4-hydroxypiperidin-1-yl)-N-(3-(quinoxalin-2-yl)phenyl)acetamide]", "IC50": "> 10"}
{"target": "JAK2", "assay": "In vitro JAK kinase enzymatic assay (JAK2)", "assay_type": "biochemical", "conditions": "not given", "method": "as §1, with “The” for “The JAK3 kinase is recombinant human protein (catalytic domain, amino acids 781-1124 with GST-tag), expressed in insect cells (Invitrogen Catalog PV3855). The”, “After the reactions are finished or stopped, portion or all the reaction mixtures are transferred onto filter paper P81 Phosphocellulose paper (Whatman catalog 3698-915) for binding the final radioisotope labeled products.” left out, “Discov.” for “Discov. 3, 607-621 (2008); Olive D M, Expert Rev Proteomics, 1, 327-341 (2004)].”\nas §2", "units": {"IC50": "µM"}}
{"molecule": "CC(=O)SCC(=O)Nc1cccc(-c2cnc3ccccc3n2)c1", "note": "[Example 30, S-2-oxo-2-(3-(quinoxalin-2-yl)phenylamino)ethyl ethanethioate]", "IC50": "> 10"}
{"molecule": "CCOC(=O)CC(=O)Nc1cccc(-c2cnc3ccccc3n2)c1", "note": "[Example 32, ethyl 3-oxo-3-(3-(quinoxalin-2-yl)phenylamino)propanoate]", "IC50": "> 10"}
{"molecule": "O=C(CN1CCN(c2ccncc2)CC1)Nc1cccc(-c2cnc3ccccc3n2)c1", "note": "[Example 33, 2-(4-(pyridin-4-yl)piperazin-1-yl)-N-(3-(quinoxalin-2-yl)phenyl)acetamide]", "IC50": "> 10"}
{"molecule": "O=C(CN1CCNCC1)Nc1cccc(-c2cnc3ccccc3n2)c1", "note": "[Example 35, 2-(piperazin-1-yl)-N-(3-(quinoxalin-2-yl)phenyl)acetamide]", "IC50": "> 20"}
{"molecule": "NS(=O)(=O)CCC(=O)Nc1cccc(-c2cnc3ccccc3n2)c1", "note": "[Example 36, 3-(aminosulfonyl)-N-[3-(2-quinoxalinyl)phenyl]propanamide]", "IC50": "> 10"}
